Data as given in patent US11795196B2, “Mitochondria-targeting peptides” (Stealth BioTherapeutics Corp., priority 2017, dated 2023).

How the values were obtained:
rat [1] = test: Rat Acute Kidney Injury (AKI) Model, renal ischemia-reperfusion; format: in vivo; parameters: concentration or dose not given beside the values; conditions: 30 minutes renal artery occlusion of both kidneys, 24 hours after reperfusion, relative to vehicle
Method: The Rat Acute Kidney Injury (AKI) Model was performed by IPST Therapeutique Inc, Sherbrooke, Quebec, Canada. The animals were randomized in terms of even distribution between treatment groups based on their body weight by the Study Director with the aim of scheduling animal from each group at each day of surgery. The rats will be given free access to food and water. Experimental Procedures Induction of Ischemia-Reperfusion • 1. Rats will be anaesthetized with isoflurane USP (Abbot Laboratories, Montreal Canada) 2% in oxygen and placed on a heated pad to maintain body temperature. The ECG and oxygen saturation will be monitored for the entire surgical process. The body temperature will be monitored with a probe thermometer introduced into the abdomen, very close to the kidneys. • 2. A 1 mL blood draw will be taken from the jugular vein. The blood will be collected into lithium heparin tubes and centrifuged at 3000 rpm for 10 min. to obtain the plasma. The plasma will be separated into 200 μL aliquot and stored at −20° C. until dosage of biomarkers. • 3. The abdomen will be disinfected with providone iodine and alaparotomy will be performed. • 4. The kidneys will be exposed and a temporary suture will be placed around renal artery of the two kidneys. Renal ischemia will be visually confirmed by a gradual changed of the kidneys colour going from red to dark purple within a couple of minutes following the start of the ischemia. During the ischemia, the kidneys will be kept moist and warm using a heat lamp and sterile gauze soaked in warm (37° C.) saline. The temperature will be monitored with a probe thermometer introduced into the abdomen, very close to the kidneys. • 5. After 30 minutes of occlusion, the suture will be removed. • 6. The abdominal wounds will be closed with 4-0 silk suture, and the animal will be return to its cage. • 7. Twenty-four hours after reperfusion the rats will be re-anesthetized. A second blood draw will be taken as was done before the ischemia. • 8. Sham will be treated under same conditions as vehicle, except, kidneys will not be subjected to ischemic conditions. Detection of Biomarkers A 200 μL aliquot of plasma sample will be taken before the ischemia and 24 hours following the ischemia; both will be sent to the clinical laboratory of the CHUS (Centre Hospitalier Universitaire de Sherbrooke, Quebec, Canada) for detection of plasma level of creatinine (p.Cr) and Blood Urea Nitrogen (BUN). Computer Systems The following are the validated computer systems to be used during the conduct of this study. The analysis software will be Microsoft Office Excel 2007 installed on networked personal computers running Microsoft Windows8, XP Professional or Vista. Data Analysis Values are presented as means±SEM (standard error of the means) and presented by the symbol+on the graph. Repeat un-paired Student's t-tests were performed in Microsoft Excel 2007 on all experimental data. Differences were considered significant when p≤ 0.05. The vehicle group was compared to the sham group while the test article was compared to the vehicle group. The plasma creatinine post-UR (% mean of vehicle) was calculated using the following formula:
[formula] Where: p.Cr=Plasma creatinine Mean Δ plasma creatinine in sham group=Mean (plasma creatinine 24 h post-isch.−plasma creatinine pre-isch.) in sham group Mean Δ plasma creatinine in vehicle group=Mean ((plasma creatinine 24 h post-inch.−plasma creatinine pre-isch.)−Mean Δ plasma creatinine in sham group) in vehicle group The BUN post-I/R (% mean of vehicle) was calculated using the following formula:
[formula] […]

rat [2] = test: Rat Myocardial Infarction Model; format: in vivo; conditions: s.c. 2×2 mg/kg, 30 min before ischemia and 5 min before reperfusion, 30 min LAD occlusion, 24 hours post-reperfusion, n=8
Method: The Rat Myocardial Infarction Model was performed by IPST Therapeutique Inc, Sherbrooke, Quebec, Canada. The animals were randomized in terms of even distribution between treatment groups based on their body weight by the Study Director with the aim of scheduling animal from each treatment group for each day of surgery (when possible). • 1) Sham group: size of the group: n=2. Route of administration: n/a; • 2) Vehicle group: size of the group: n=8. Route of administration: s.c.; • 3) Testing article group: size of the group: n=8. Route of administration: s.c.; Treatment dose: 2×2 mg/kg, 30 min before ischemia and 5 min before reperfusion. Experimental Procedures Study Design • 1) On the day of the surgery, the rat will be anaesthetized with a mixture of 2 to 2.5%. isoflurane USP (Abbot Laboratories, Montreal Canada) in oxygen, and placed on a heating pad to maintain body temperature. • 2) The animal will be intubated and immediately ventilated by means of a positive-pressure rodent respirator set at 10 mL/kg bodyweight at a frequency of 65-70 strokes/min. • 3) A baseline blood sample (1 mL) will be taken from the jugular vein for baseline biomarkers quantification. The blood will be collected in lithium heparin microtainers and centrifuged at 3000 rpm, at 4±2° C. for 10 minutes. The plasma will be aliquoted in 2 samples of equal volume (approximately 250 μL). […] A 1 mL blood sample will be taken from the jugular vein, for 24 hrs biomarkers quantification. • 11) The heart will be excised and mounted into a Langendorff apparatus. […]

isolated rat hearts = test: Ischemia-reperfusion injury, Langendorff isolated heart preparation; conditions: 30 min LAD occlusion + 120 min reperfusion, compound 1 μM in perfusion solution, mean; for White Necrotic Area, % of area at risk: only white necrotic tissue

Row | Structure (SMILES) | BUN, % Protection, Mean (rat [1]) | Plasma Creatinine, % Protection, Mean (rat [1]) | Infarct size (%), Mean (rat [2]) | Infarct size, % of area at risk (isolated rat hearts) | White Necrotic Area, % of area at risk (isolated rat hearts)
1 | Cc1cc(O)cc(C)c1C[C@H](NC(=O)[C@H](N)CCCNC(=N)N)C(=O)N[C@@H](CCCCN)c1nc(Cc2ccc(C(C)(C)C)cc2)no1 [Example 33, (R)-2-amino-N-((S)-1-(((S)-5-amino-1-(3-(4-(tert-butyl)benzyl)-1,2,4-oxadiazol-5 yl)pentyl)amino)-3-(4-hydroxy-2,6-dimethylphenyl)-1-oxopropan-2-yl)-5-guanidinopentanamide] | 35.9% | 38.9% | – | – | –
2 | Cc1cc(O)cc(C)c1C[C@H](NC(=O)[C@H](N)CCCNC(=N)N)C(=O)N[C@@H](CCCCN)c1nc(CC23CC4CC(CC(C4)C2)C3)no1 [Example 37, (R)-N-((S)-1-(((S)-1-(3-(adamantan-1-ylmethyl)-1,2,4-oxadiazol-5-yl)-5-aminopentyl)amino)-3-(4-hydroxy-2,6-dimethylphenyl)-1-oxopropan-2-yl)-2-amino-5-guanidinopentanamide] | 44.3% | 30.7% | 29.2% | – | –
3 | Cc1cc(O)cc(C)c1C[C@H](NC(=O)[C@H](N)CCCNC(=N)N)C(=O)N[C@@H](CCCCN)c1nc(C23CC4CC(CC(C4)C2)C3)no1 [Example 38, D-Arg-DMT-NH((S)-1-(3-(adamantan-1-yl)-1,2,4-oxadiazol-5-yl)-5-aminopent-1-yl)] | – | – | 30.6% | 31% | 15%
4 | Cc1cc(O)cc(C)c1C[C@H](NC(=O)[C@H](N)CCCn1ccnc1N)C(=O)N[C@@H](CCCN)c1nc(CC2CCCCC2)no1 [Example 42, (R)-2-amino-N-((S)-1-(((S)-4-amino-1-(3-(cyclohexylmethyl)-1,2,4-oxadiazol-5 yl)butyl)amino)-3-(4-hydroxy-2,6-dimethylphenyl)-1-oxopropan-2-yl)-5-(2-amino-1H-imidazol-1-yl)pentanamide] | 50.4% | 53.4% | – | – | –
5 | Cc1cc(O)cc(C)c1C[C@H](NC(=O)[C@H](N)CCCNC(=N)N)C(=O)N[C@@H](Cc1c[nH]cn1)c1nc(CCc2ccccc2)no1 [Example 53, (R)-N-((S)-1-(((S)-2-(1H-imidazol-4-yl)-1-(3 phenethyl-1,2,4-oxadiazol-5 yl)ethyl)amino)-3-(4-hydroxy-2,6-dimethylphenyl)-1-oxopropan-2-yl)-2-amino-5-guanidinopentanamide] | – | – | – | 30% | 21%
6 | Cc1cc(O)cc(C)c1C[C@H](NC(=O)[C@H](N)CCNC(=N)N)C(=O)N[C@@H](CCCCN)c1nc(Cc2ccccc2)no1 [Example 64, (R)-2-amino-N-((S)-1-(((S)-5-amino-1-(3-benzyl-1,2,4-oxadiazol-5 yl)pentyl)amino)-3-(4-hydroxy-2,6-dimethylphenyl)-1-oxopropan-2-yl)-4-guanidinobutanamide] | – | – | – | 38% | 20%
7 | Cc1cc(O)cc(C)c1C[C@H](NC(=O)[C@H](N)CCCn1ccnc1N)C(=O)N[C@@H](CCCCN)c1nc(CC2CCCCC2)no1 [Example 65, (R)-2-amino-N-((S)-1-(((S)-5-amino-1-(3-(cyclohexylmethyl)-1,2,4-oxadiazol-5 yl)pentyl)amino)-3-(4-hydroxy-2,6-dimethylphenyl)-1-oxopropan-2-yl)-5-(2-amino-1H-imidazol-1-yl)pentanamide] | – | – | – | 24% | 17%
8 | Cc1cc(O)cc(C)c1C[C@H](NC(=O)[C@H](N)CCNC(=N)N)C(=O)N[C@@H](Cc1c[nH]cn1)c1nc(CC23CC4CC(CC(C4)C2)C3)no1 [Example 68, (R)-N-((S)-1-(((S)-1-(3-(adamantan-1-yl)methyl-1,2,4-oxadiazol-5-yl)-2-(1H-imidazol-4 yl)ethyl)amino)-3-(4-hydroxy-2,6-dimethylphenyl)-1-oxopropan-2-yl)-2-amino-4-guanidinobutanamide] | – | – | – | 35% | 18%
9 | Cc1cc(O)cc(C)c1C[C@H](NC(=O)[C@@H](CCN)NC(=N)N)C(=O)N[C@@H](CCCN)c1nc(Cc2ccccc2)no1 [Example 82, (R)-4-amino-N-((S)-1-(((5)-4-amino-1-(3-benzyl-1,2,4-oxadiazol-5-yl)butyl)amino)-3-(4-hydroxy-2,6-dimethylphenyl)-1-oxopropan-2-yl)-2-guanidinobutanamide] | 25.5% | 32.0% | – | 42% | 24%
